Assay results as given in patent US20090176817A1, “Method of Treatment of Diarrhea-Predominant Irritable Bowel Syndrome in a Subject” (priority 2005, published 2009).

Assays:
[1] = system: diarrhea-predominant IBS subjects; assay: Study S241.3.011: safety; format: in vivo, human
Text: The primary efficacy parameter was the number of months that a subject was a responder for IBS symptoms (abdominal pain, abdominal discomfort, abnormal bowel habits) over the 12-week treatment period. A responder for a month (monthly responder) was defined as a subject who answered the weekly question with “yes” at least twice for that month. The two main secondary efficacy parameters were the monthly responder rates based on the “adequate relief” questions regarding abdominal pain/discomfort and abnormal bowel habits during the 12-week treatment period. The overall response rate and responder rate for the weekly diary questions on adequate relief at each month and all months, the adequate relief rate, the number of subjects with adequate relief by week, daily diary questions, IBS-QOL scores, and the interruption of activities were also assessed. Safety was evaluated by physical examination, ECG, vital signs, laboratory evaluations, concomitant medications, and AEs.

[2] = system: diarrhea-predominant IBS subjects; assay: Study S241.3.009: safety; format: in vivo, human; design: Incidence of bilirubin increase: dose or concentration left out as unconfirmed; details: for Constipation: human, 26 weeks
Text: The primary efficacy parameter was the overall response rate for IBS symptoms, based on the weekly question concerning adequate relief of IBS symptoms (abdominal pain/discomfort, abnormal bowel habits) over the 26 weeks period. A responder was a subject who responded “yes” at least 50% of the time during his/her treatment period, with minimum treatment duration of four weeks. The two main secondary efficacy parameters were overall responder rate based on the weekly question on adequate relief of abdominal pain/discomfort and abnormal bowel habits during the 26-week treatment period. The onset of action of cilansetron was also examined using daily diary data (stool frequency, and ratings of urgency and severity) during the initial 8 weeks of trial participation. An additional key secondary efficacy parameter was the number of months (one month equals four weeks) up to six months (24-weeks) that a subject was a responder for IBS symptoms, where a responder was defined as a subject who answered the weekly question with “yes” at least twice for that month. The responder rate for the weekly diary questions on adequate relief at each month and all months, the adequate relief rate, the number of subjects with adequate relief by week, daily diary questions, IBS-QOL scores, and the interruption of activities were also assessed. Safety was evaluated by physical examination, ECG, vital signs, laboratory evaluations, concomitant medications, and AEs.

[3] = clinical; details: both, human, in vivo, 2 mg
[4] = system: serum proteins; assay: in vitro; details: both, human, plasma, Plasma protein bound
Procedure: The ex vivo protein binding of cilansetron and its 4-hydroxy metabolites has been measured in serum samples collected in a multiple-dose study in healthy and renally impaired male and female subjects, aged 33-74 years. […] Healthy subjects were matched to renally-impaired subjects with respect to age, weight, gender, and smoking status. All subjects received oral cilansetron 2 mg TID on Days 1 to 5, and a single dose on the morning of Day 6.

[5] = system: CYP3A5; details: hepatocytes
[6] = system: non-constipated IBS subjects; assay: Study S241.2.113: Phase II dose-ranging efficacy; format: in vivo, human
Procedure: Study S241.2.113 was a Phase II, double-blind, placebo-controlled, randomized, multi-center, parallel-group, dose-ranging study to investigate the efficacy and safety of cilansetron in nonconstipated subjects with irritable bowel syndrome. The study was conducted in 55 study centers in Canada, France, Austria, Germany, United Kingdom, Italy, Belgium, and The Netherlands. A total of at least 88 subjects per treatment group evaluable for efficacy were planned, in total 440 to complete the study; 776 subjects were screened; 485 subjects were randomized (479 in the safety sample). Diagnosis and main criteria for inclusion were IBS subjects satisfying the Rome criteria (1992) and minimum abdominal pain/discomfort, stool frequency and consistency determined during the run-in period.
Subjects were treated with cilansetron 1 mg, 2 mg, 4 mg and 16 mg tablets given orally TID or matching placebo tablets given orally TID for 12 weeks.
The primary efficacy parameter was the weekly global question concerning adequate relief of IBS symptoms (abdominal pain/discomfort, abnormal bowel habits). A responder is a subject who responded “Yes” at least 50% of the time after randomization, with a minimum treatment duration of four weeks.

[7] = clinical; details: human, in vivo; for AUC: AUC (0-τ)
Procedure: Subjects were treated with a single oral dose of cilansetron 8 mg (tablet) on Day 1, followed by 8 mg TID for 5 days (Days 2-6) and a single 8 mg dose on the morning of Day 7. Young subjects ranged in age from 19-45 years, and elderly from 66-79 years. Serial blood samples were collected up to 24 hours postdose on Days 1 and 7, and cilansetron pharmacokinetic parameters were calculated. Doses on pharmacokinetic sampling days were administered under fasted conditions.
Young subjects ranged in age from 19-45 years, and elderly from 66-79 years. Serial blood samples were collected up to 24 hours postdose on Days 1 and 7, and cilansetron pharmacokinetic parameters were evaluated. Doses on pharmacokinetic sampling days were administered under fasted conditions.

[8] = both, human, in vivo
Procedure: Diurnal variations in cilansetron pharmacokinetics have been evaluated in a randomized, double-blind, placebo-controlled, 2-way crossover study in 9 male and 9 female healthy subjects, aged 21 to 39 years. Subjects were randomized to receive 2 treatments (cilansetron 16 mg tablet and placebo) during the 2 treatment periods. During each treatment period, subjects received a single dose of their assigned treatment on the first day (Day 1), after which they received the same treatment TID for 4 days (Days 2-5). There was a 10-day washout period between treatment periods. Subjects were fasted for at least 2 hours before and following each dose, and heavy physical activity was restricted. Serial blood samples for the measurement of multiple-dose pharmacokinetics of cilansetron were collected up to 24 hours postdose on Day 5.

For `Cc1nccn1C[C@H]1CCc2c(c3cccc4c3n2CCC4)C1=O` [Cilansetron, (R)-(−)-4,5,6,8,9,10-hexahydro-10-[(2-methyl-1H-imidazol-1-yl)methyl]-11H-pyrido-[3,2,1-jk]-carbazol-11-one], the “Number of subjects who died during the three-month treatment period” value ([1]; 2 mg TID, 388 randomized, S241.3.011) was 1 (<1) n (%), the Constipation ([1]; female, human, in vivo, 3 months) was 26% and the “Fecal occult blood positive and/or blood in stool” value ([1]; human, in vivo) was 7%. The Abdominal distension ([1]; human, in vivo, 3 months) was 5%, the “Abdominal pain NOS” value ([1]; human, in vivo, 3 months) was 6% and the Abdominal pain upper ([1]; human, in vivo, 3 months) was 2%. For the same compound, the Constipation ([1]; human, in vivo, 3 months) was 20%, the Flatulence ([1]; human, in vivo, 3 months) was 4% and the “Serious AEs” value ([1]; human, in vivo, 3 months) was 2%. The “Subjects with at least one TEAE” value ([1]; human, in vivo, 3 months) was 69%, the “At least one TEAE, entire four-month period” value ([1]; human, in vivo, 4 months) was 78% and the “TEAEs leading to permanent discontinuation” value ([1]; in vivo) was “Eleven”. The Constipation ([1]; male, human, in vivo, 3 months) was 8%, the “Number of subjects who died” value ([2]; 2 mg TID, 401 randomized, S241.3.009) was 0 n (%) and the Constipation ([2]; female, in vivo) was 17%. The Abdominal pain aggravated ([2]; in vivo) was “five”, the “Incidence of bilirubin increase” value ([2]; in vivo) was 8% and the Rectal hemorrhage ([2]; in vivo) was “three”. The Suspected ischemic colitis ([2]; in vivo) was “three”, the Constipation ([2]; male, in vivo) was 7% and the Tmax ([3]; Tmax) was 1 h. The half-life ([3]; T½) was 2.85 h, the fraction unbound [4] was roughly 0.04 and the “In vivo chiral inversion to KC9945” value was “no in vivo chiral inversion”. The “CYP3A5 mRNA” value [5] was “doubled”, the “Responder rate higher than placebo” value ([6]; 1 mg TID) was 11% and the “Responder rate better than placebo” value ([6]; 2 mg TID) was 22%. The “Responder rate higher than placebo” value ([6]; 4 mg TID) was 8%, the “Responder rate higher than placebo” value ([6]; 16 mg TID) was 18% and the AUC(0-inf) ([7]; female, 8 mg) was 289 ng·h/mL. It also gave an AUC ([7]; female, 8 mg) of 247 ng·h/mL, an AUC(0-inf) ([7]; female) of 178 ng·h/mL and an AUC ([7]; female) of 263 ng·h/mL. The Cmax ([7]; female) was 95.1 ng/mL, the Tmax ([7]; female) was 0.88 h and the AUC(0-inf) ([7]; male) was 228 ng·h/mL. It also gave an AUC ([7]; male) of 196 ng·h/mL, a Cmax ([7]; male) of 58.8 ng/mL and a Tmax ([7]; male) of 1.31 h. For the same compound, the Vd/F ([7]; male, Vz/F) was 243 L, the “AUC ratio 0-8 h/8-16 h” value [8] was 106 (99, 115) % and the “AUC ratio 0-8 h/16-24 h” value [8] was 110 (103, 119) %. The “AUC ratio 8-16 h/16-24 h” value [8] was 104 (96, 111) %, the “Cmax ratio 0-8 h/8-16 h” value [8] was 130 (111, 153) % and the “Cmax ratio 0-8 h/16-24 h” value [8] was 133 (113, 157) %. For the same compound, the “Cmax ratio 8-16 h/16-24 h” value [8] was 102 (87, 120) % and the “Mean Cmax higher after morning dose than mid-day and evening doses” value ([8]; 16 mg) was 30-33%.
